How the values were obtained:
[1] = system: IL-1β, IL-2, IL-4, IL-5, IL-10, IL-12t, IFNγ or TNFα; experiment: Serum cytokines, mouse Th1/2 multiplex assay; assay type: in vivo, mice; settings: serum at termination; 6 μmol/kg i.v., three times a week for three weeks
Experimental: H1944 or H1703 cells are injected at 5×10^6 s.c. into a flank of 7-week-old female athymic NCr-nu/nu mice (Charles River, Wilmington, Mass.). The drug injections are initiated when the tumors reached 2×2×2 mm (typically 3-4 weeks). JS-K is formulated in Pluronic P123 (P123) (BASF, Florham Park, N.J.) micelles. Animals are treated three times a week for three weeks with i.v. tail vein injections of either vehicle (2.25% P123 in PBS) or JS-K (6 μmol/kg in the vehicle). Tumors are measured using a caliper twice a week, and the tumor volumes are calculated using a formula for ellipsoid volume, π/6×L×W×H (Tomayko and Reynolds, 1989). The non-parametric Mann-Whitney test is utilized for statistical comparisons of tumor volumes at each time point. Body weights are taken before each drug injection. Animals are sacrificed 2 h after the last drug injection. Blood is collected by cardiac puncture under isoflurane anesthesia, for testing for cytokines. Cytokines in serum are measured using a mouse Th1/2 multiplex assay (Meso Scale Discovery, Gaithersburg, Md.), according to the manufacturer's protocol. There were 9-13 mice/group at termination.

H1703 cells [2] = experiment: Intracellular ROS/RNS, CM-H2DCF-DA (DCF fluorescence); assay type: cell-based, human; settings: up to 60 min
Experimental: (§1) Intracellular level of reactive oxygen/nitrogen species is quantified by the oxidation of the ROS/RNS-sensitive fluorophore 5-(and-6)-chloromethyl-2′,7′-dichlorodihydrofluorescein diacetate (CM-H2DCF-DA) (Invitrogen, Carlsbad, Calif.). Cells growing on 6-well plates (6×10^5/well) are loaded with 5 μM CM-H2DCF-DA in Hanks' balanced salt solution (HBSS) at 37° C. and 5% CO2. After 30 min of incubation, HBSS containing the probe is removed, cells are rinsed with HBSS and 3 mL of fresh HBSS is added to each well followed by addition of JS-K or DMSO as a control. After 30 min or 60 min the cells are collected by scraping in HBSS and 2′,7′-dichlorofluorescein (DCF) fluorescence is measured using a Perkin Elmer LS50B luminescence spectrometer with the excitation source at 488 nm and emission at 530 nm.

H1944 cells [3] = experiment: as above; assay type: cell-based, human; settings: up to 60 min
Experimental: as §1

MnSOD = experiment: Anti-nitrotyrosine immunoprecipitation, anti-MnSOD immunoblot; assay type: cell-based, human; settings: H1703 cells, 1 h
Experimental: For immunoprecipitation, 300 μg of the cell lysate is incubated on the rotator overnight at 4° C. with 2 μg of anti-nitrotyrosine mAb and 30 μL of protein G agarose. After washing three times with lysis buffer, the beads are suspended in 30 μL of 2×NuPAGE (Invitrogen, Carlsbad, Calif.) loading buffer and heated for 10 min at 95° C. Immunoprecipitated material is resolved on SDS-PAGE followed by immunoblotting with anti-MnSOD antibody.
Western blot analysis is performed as previously described (Romanowska et al., Free Radical Biol. Med., 43:1145-1155 (2007)). Primary antibodies for caspases 3, 7, PARP and cleaved PARP, Bax, cytochrome c (Cell Signaling Technology, Danvers, Mass.), peroxiredoxins 1-6 (LabFrontier, Seoul, Korea), and nitrotyrosine and MnSOD (Millipore, Billerica, Mass.) are used.

mitochondrial superoxide = experiment: Mitochondrial superoxide level, MitoSOX; assay type: cell-based, human
Experimental: Mitochondrial superoxide level is measured using MitoSOX fluorescent dye (Invitrogen, Carlsbad, Calif.), according to the manufacturer's protocol. Rotenone (10 μM) is used as a positive control.

H2122 = experiment: CellTiter 96 MTT cell proliferation assay (Example 9); assay type: cell-based, human
Experimental: (§2) Cell lines derived from human non-small cell lung cancers are obtained from American Type Culture Collection (ATCC, Manassas, Va.), and are designated by their NCI numbers. Cells are maintained in RPMI 1640 medium (Gibco, Invitrogen, Carlsbad, Calif.), supplemented with 10% fetal calf serum (Gemini Bio-Products, Sacramento, Calif.), 100 U/mL penicillin/streptomycin, and 2 mM glutamine at 37° C. and 5% CO2.
(§3) For proliferation assays cells are seeded at 2×10^4/well in 96-well plates, allowed to adhere for 24 hrs, and then are treated with the drug or DMSO as a control for 48 hours. […] Compounds are prepared as 10 mM stock solution in dimethyl sulfoxide (Sigma, St. Louis, Mo.). Increasing drug concentrations in 10 μL of phosphate-buffered saline (PBS) are added to 100 μL of the culture medium and incubated at 37° C. for 72 h. The CellTiter 96 non-radioactive cell proliferation assay (MTT assay, Promega, Madison, Wis.), is performed according to the manufacturer's protocol. Each compound concentration is represented in six repeats, and the screening is performed as at least two independent experiments. IC50 values are calculated using Sigma Plot software (Systat Software).

H441 = experiment: as above; assay type: cell-based, human
Experimental: as §2, §3

H1373 = experiment: as above; assay type: cell-based, human
Experimental: as §2, §3

H1944 = experiment: as above; assay type: cell-based, human
Experimental: as §2, §3

H1703 = experiment: as above; assay type: cell-based, human
Experimental: as §2, §3

H1703 cells [4] = experiment: Total glutathione / GSSG content after JS-K treatment; assay type: cell-based, human; settings: JS-K 1 μM, 1 h
Experimental: (§4) H1703 or H1944 cells are plated in 6-well plates at 6×10^5 per well. Cells are treated with JS-K for 1 h at 1 μM (H1703) or 10 μM (H1944). After treatment, cells are washed with PBS, scraped into PBS and collected by centrifugation at 800 g for 10 min. The pellets are resuspended in 80 μL of 10 mM HCl and lysed by two successive rounds of freeze and thawing. Twenty μL of a 5% 5-sulfosalicylic acid solution is added to the lysate. The precipitate is removed by centrifugation at 8,000 g for 10 min, and the supernatant is analyzed for total glutathione content using total glutathione quantification kit (Dojindo, Rockville, Md.) according to the manufacturer's protocol. To measure GSSG concentration, cells are treated and lysed in accordance with the procedure above. The lysate is then neutralized with 0.1 M NaOH and treated with 4-vinylpyridine at a final concentration of 50 mM for 30 min.

H1944 cells [5] = experiment: as above; assay type: cell-based, human; settings: JS-K 10 μM, 1 h
Experimental: as §4

serum cytokine levels, treated vs control groups [1]: no significant differences
IC50 (H2122): 3.17 µM
IC50 (H441): 0.94 µM
IC50 (H1373): 0.86 µM
IC50 (H1944): > 10 µM
IC50 (H1703): 0.57 µM
SMILES: CCOC(=O)N1CCN(/[N+]([O-])=N/Oc2ccc([N+](=O)[O-])cc2[N+](=O)[O-])CC1 [Compound 1]
DCF-reactive material (H1703 cells [2]): increase
DCF-reactive material (H1944 cells [3]): not
nitrotyrosine level in MnSOD (MnSOD): increase
mitochondrial superoxide generation (mitochondrial superoxide): increase
GSH μmol/mg protein (H1703 cells [4]): 1.27 μmol/mg protein
GSSG μmol/mg protein (H1703 cells [4]): 0.042 μmol/mg protein
GSH μmol/mg protein (H1944 cells [5]): 0.13 μmol/mg protein
GSSG μmol/mg protein (H1944 cells [5]): 0.014 μmol/mg protein

Source: patent US9205091B2, “Diazeniumdiolated compounds, pharmaceutical compositions, and method of treating cancer” (The United States of America, as represented by the …, priority 2009, dated 2015)
